# In patent publication US20240116877A1, “KIT KINASE INHIBITORS AND METHODS OF USE THEREOF” (Deciphera Pharmaceuticals, LLC, priority 2021, published 2024):
# Like-named read-outs stand apart in the source and are kept apart here.
# Experiments:
# c-KIT kinase (uKIT) = c-KIT kinase (uKIT) (Homo sapiens (Human), UniProt P10721); experiment: Biochemical Assay for uKIT (coupled pyruvate kinase/lactate dehydrogenase assay); details: Inhibition of biochemical activity of uKIT kinase; 1 mM ATP
# Procedure, shortened: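 IC50 from percent inhibition of reaction rate over 2-3 h, relative to no-compound and known-inhibitor controls. KIT enzyme (16 nM or 4.36 nM, two sequences) ran with 1 mM ATP and 0.7 mg/mL PE4Y in Tris pH 7.5, 30° C; ATP turnover coupled to NADH loss at 340 nm.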
# Ba/F3 KIT mutant cells = experiment: Ba/F3 mutant KIT Cell Proliferation Assays (resazurin); assay type: cell-based; details: Mus musculus, BaF3
# Procedure, shortened: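 IC50 values come from resazurin fluorescence (ex 540, em 600) after 5 h dye exposure, added as a 440 μM solution. Cells were IL-3-independent Ba/F3 expressing mutant KIT from a lentiviral vector, puromycin-selected.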
# GIST 430 cells = experiment: GIST 430 Cell Proliferation Assay (resazurin); assay type: cell-based; details: Homo sapiens; GIST430 cell proliferation
# Procedure, shortened: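 Five thousand cells per well were exposed to serially diluted compound in complete growth medium for 115 h at 37 degrees Celsius, 5% CO2. Resazurin was then added for a further 5 h, fluorescence read at 540 nm excitation/600 nm emission, and IC50 values calculated.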
# [1] = Ba/F3 KIT AYdup-V654A mutant cell proliferation, read-out: AYdup-V654A IC50
# [2] = Ba/F3 KIT exon11del-V654A mutant cell proliferation, read-out: exon11del-V654A IC50
# [3] = Ba/F3 KIT exon11del-Y823D mutant cell proliferation, read-out: exon11del-Y823D IC50
# [4] = Ba/F3 KIT AYdup mutant cell proliferation, read-out: AYdup IC50
# [5] = Ba/F3 KIT AYdup-D816G mutant cell proliferation, read-out: AYdup-D816G IC50
# c-KIT kinase (uKIT), sequence (P10721 other isoform, or with tags, fused parts or gaps): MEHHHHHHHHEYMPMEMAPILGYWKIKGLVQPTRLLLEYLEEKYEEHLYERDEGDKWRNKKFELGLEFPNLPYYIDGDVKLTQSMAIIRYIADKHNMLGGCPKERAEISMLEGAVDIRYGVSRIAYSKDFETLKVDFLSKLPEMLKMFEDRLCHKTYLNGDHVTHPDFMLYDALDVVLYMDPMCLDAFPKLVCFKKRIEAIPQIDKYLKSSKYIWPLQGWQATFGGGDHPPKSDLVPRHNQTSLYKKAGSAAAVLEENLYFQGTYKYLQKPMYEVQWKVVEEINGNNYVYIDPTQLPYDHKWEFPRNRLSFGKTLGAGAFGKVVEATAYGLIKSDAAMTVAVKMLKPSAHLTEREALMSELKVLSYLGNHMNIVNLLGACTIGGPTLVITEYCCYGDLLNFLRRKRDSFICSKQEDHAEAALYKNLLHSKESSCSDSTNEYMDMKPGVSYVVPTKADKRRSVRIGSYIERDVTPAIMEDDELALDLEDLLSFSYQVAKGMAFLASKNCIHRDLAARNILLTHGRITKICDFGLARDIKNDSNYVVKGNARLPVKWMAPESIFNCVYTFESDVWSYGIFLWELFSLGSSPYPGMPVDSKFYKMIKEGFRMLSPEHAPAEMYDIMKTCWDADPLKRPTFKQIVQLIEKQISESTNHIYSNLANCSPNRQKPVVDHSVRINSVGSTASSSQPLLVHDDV
SMILES,IC50 (c-KIT kinase (uKIT)) [nM],IC50 (Ba/F3 KIT mutant cells; [1]) [nM],IC50 (Ba/F3 KIT mutant cells; [2]) [nM],IC50 (Ba/F3 KIT mutant cells; [3]) [nM],IC50 (GIST 430 cells) [nM],IC50 (Ba/F3 KIT mutant cells; [4]) [nM],IC50 (Ba/F3 KIT mutant cells; [5]) [nM]
CC(C)(F)CCNC(=O)Nc1ccc(Nc2ncnc3cc(OC[C@H]4CCOC4)cc(F)c23)cc1 [Example 151],≤ 10,10 to 100,10 to 100,100 to 1000,10 to 100,–,–
COCCOc1cc(F)c2c(Nc3ccc(NC(=O)CC(=O)N4CCC(C)(C)CC4)cc3)ncnc2c1 [Example 152],10 to 100,10 to 100,10 to 100,100 to 1000,10 to 100,–,–
COCCOc1cc(F)c2c(Nc3ccc(NC(=O)CC(=O)N4CCC(C(F)(F)F)C4)cc3)ncnc2c1 (centres unmarked) [Example 153],10 to 100,10 to 100,100 to 1000,100 to 1000,10 to 100,–,–
COCCOc1cc(F)c2c(Nc3ccc(NC(=O)CC(=O)N4CCOCC4(C)C)cc3)ncnc2c1 [Example 154],10 to 100,100 to 1000,100 to 1000,100 to 1000,10 to 100,–,–
COC[C@@H](C)Oc1cc(F)c2c(Nc3ccc(NC(=O)NCCC(C)(C)F)cc3)ncnc2c1 [Example 155],≤ 10,10 to 100,10 to 100,100 to 1000,100 to 1000,–,–
CO[C@H](C)COc1cc(F)c2c(Nc3ccc(NC(=O)NCCC(C)(C)F)cc3)ncnc2c1 [Example 156],≤ 10,10 to 100,10 to 100,10 to 100,10 to 100,≤ 10,10 to 100
COC[C@H](C)Oc1cc(F)c2c(Nc3ccc(NC(=O)NCCC(C)(C)F)cc3)ncnc2c1 [Example 157],10 to 100,100 to 1000,100 to 1000,100 to 1000,100 to 1000,–,–
CC(C)(F)CCNC(=O)Nc1ccc(Nc2ncnc3cc(OCCCN4CCCC4)cc(F)c23)cc1 [Example 158],≤ 10,≤ 10,10 to 100,10 to 100,10 to 100,≤ 10,≤ 10
CC(C)(F)CCNC(=O)Nc1ccc(Nc2ncnc3cc(OCCC4COC4)cc(F)c23)cc1 [Example 159],≤ 10,10 to 100,10 to 100,10 to 100,10 to 100,–,–
CC(C)(F)CCNC(=O)Nc1ccc(Nc2ncnc3cc(OC[C@H]4CCCO4)cc(F)c23)cc1 [Example 161],≤ 10,≤ 10,10 to 100,10 to 100,10 to 100,≤ 10,10 to 100
CC(C)(F)CCNC(=O)Nc1ccc(Nc2ncnc3cc(OC[C@@H]4CCCO4)cc(F)c23)cc1 [Example 162],≤ 10,10 to 100,10 to 100,10 to 100,10 to 100,≤ 10,10 to 100
COCCOc1cc(F)c2c(Nc3ccc(NC(=O)CC(=O)N(C(C)C)C(C)C)cc3)ncnc2c1 [Example 163],100 to 1000,100 to 1000,> 1000,100 to 1000,100 to 1000,–,–
COCCOc1cc(F)c2c(Nc3ccc(NC(=O)CC(=O)N4CCC(F)(F)CC4)cc3)ncnc2c1 [Example 164],10 to 100,100 to 1000,100 to 1000,100 to 1000,10 to 100,–,–
COCCOc1cc(F)c2c(Nc3ccc(NC(=O)CC(=O)N4CCCC(F)(F)C4)cc3)ncnc2c1 [Example 165],10 to 100,10 to 100,100 to 1000,100 to 1000,10 to 100,–,–
COCCOc1cc(F)c2c(Nc3ccc(NC(=O)CC(=O)N4CCCC(C)(C)C4)cc3)ncnc2c1 [Example 166],10 to 100,10 to 100,10 to 100,10 to 100,10 to 100,–,–
COCCOc1cc(F)c2c(Nc3ccc(NC(=O)CC(=O)N4CCC4(C)C)cc3)ncnc2c1 [Example 167],10 to 100,10 to 100,100 to 1000,100 to 1000,10 to 100,–,–
COCCOc1cc(F)c2c(Nc3ccc(NC(=O)CC(=O)NC4CCC4(C)C)cc3)ncnc2c1 (centres unmarked) [Example 168],10 to 100,10 to 100,10 to 100,10 to 100,≤ 10,–,–
COCCOc1cc(F)c2c(Nc3ccc(NC(=O)CC(=O)N4CCCC4C(F)(F)F)cc3)ncnc2c1 (centres unmarked) [Example 169],10 to 100,10 to 100,100 to 1000,100 to 1000,10 to 100,–,–
COCCOc1cc(F)c2c(Nc3ccc(NC(=O)CC(=O)N4CCCC[C@@H]4C(F)(F)F)cc3)ncnc2c1 [Example 170],10 to 100,10 to 100,10 to 100,10 to 100,10 to 100,–,–
COCCOc1cc(F)c2c(Nc3ccc(NC(=O)CC(=O)N4CCCC[C@H]4C(F)(F)F)cc3)ncnc2c1 [Example 171],10 to 100,10 to 100,10 to 100,≤ 10,10 to 100,–,–
CN1CC[C@H](Oc2cc(F)c3c(Nc4ccc(NC(=O)NCCC(C)(C)F)cc4)ncnc3c2)C1 [Example 172],10 to 100,10 to 100,10 to 100,10 to 100,10 to 100,–,–
CN1CC[C@@H](Oc2cc(F)c3c(Nc4ccc(NC(=O)NCCC(C)(C)F)cc4)ncnc3c2)C1 [Example 173],≤ 10,10 to 100,10 to 100,10 to 100,10 to 100,–,–
CC(C)(F)CCNC(=O)Nc1ccc(Nc2ncnc3cc(OC4CCC4)cc(F)c23)cc1 [Example 174],≤ 10,10 to 100,10 to 100,10 to 100,100 to 1000,–,–
CC(C)(F)CCNC(=O)Nc1ccc(Nc2ncnc3cc(OC4COC4)cc(F)c23)cc1 [Example 175],≤ 10,10 to 100,10 to 100,10 to 100,10 to 100,–,–
COCCOc1cc(OC)c2c(Nc3ccc(NC(=O)CC(=O)NC4CCCC4)cc3)ncnc2c1 [Example 176],10 to 100,10 to 100,100 to 1000,10 to 100,10 to 100,10 to 100,10 to 100
COCCOc1cc(OC)c2c(Nc3ccc(NC(=O)CC(=O)NC(C)(C)C)cc3)ncnc2c1 [Example 177],10 to 100,10 to 100,100 to 1000,100 to 1000,10 to 100,–,–
COCCOc1cc(F)c2c(Nc3ccc(NC(=O)CC(=O)N4C[C@@H](C)O[C@@H](C)C4)cc3)ncnc2c1 [Example 179],100 to 1000,100 to 1000,100 to 1000,100 to 1000,100 to 1000,–,–
COCCOc1cc(OC)c2c(Nc3ccc(NC(=O)NCCC(C)(C)F)cc3)ncnc2c1 [Example 181],≤ 10,10 to 100,10 to 100,≤ 10,10 to 100,–,–
COCCOc1cc(OC)c2c(Nc3ccc(NC(=O)NCCC(C)(C)C#N)cc3)ncnc2c1 [Example 182],10 to 100,10 to 100,10 to 100,10 to 100,10 to 100,–,–
